Measurements taken from PMC6906431, “Selective small molecule PARG inhibitor causes replication fork stalling and cancer cell death” (Nature Communications, 2019).
Values joined by “and” are separate entries in the source; they are usually repeats but may differ in a detail not shown here. Identical values can stand only once.

Key:
A172 glioblastoma cells = test: Sulforhodamine B (SRB) cytotoxicity assay
Method: (§1) Normalized % viabilities are plotted against log concentration. Error bars show the percent coefficient of variation. […] Mann-Whitney test was used to generate the p-value. The DNA spread assay is the representation of two independently repeated experiments. Source Data are provided as a Source Data file.
(§2) Cells were plated in 96-well plates, treated as designated in reduced 5% FBS and fixed with trichloroacetic acid after 72 h, as previously described by[43]. […] Colorimetric or fluorescence analysis was performed in a FlexStation 3, using SoftMax Pro 7.0, Molecular Devices. Normalized graphs were generated with Prism 8 software, non-linear 4-parameter data fitting was performed for IC50 calculation.

PC3 cells [1] = test: Sulforhodamine B (SRB) cytotoxicity assay; settings: 72 h, without IR
[2] = Sulforhodamine B (SRB) cytotoxicity assay; settings: human, PC3 cells, Viability; for viability at 72 h, 1.95 µM: log [concentration] μM 0.290702; for viability at 72 h, 3.91 µM: log [concentration] μM 0.591732; for viability at 72 h, 7.81 µM: log [concentration] μM 0.892818; for viability at 72 h, 15.63 µM: log [concentration] μM 1.19382; for viability at 72 h, 31.25 µM: log [concentration] μM 1.49485; for viability at 72 h, 62.5 µM: log [concentration] μM 1.79588; for viability at 72 h, 125 µM: log [concentration] μM 2.09691; for viability at 72 h, 250 µM: log [concentration] μM 2.39794; for viability at 72 h, 500 µM: log [concentration] μM 2.69897; for viability at 72 h, 1000 µM: log [concentration] μM 3; for viability at 72 h, 2000 µM: log [concentration] μM 3.30103
MDA-MB-231 cells = test: Clonogenic survival assay; type: cell-based, human; settings: MDA-MB-231
Method: (§3) Fig. 6 Selective inhibition of PARG by xanthine derivative JA2131. a Clonogenic survival assays of PC3, MDA-MB-231, and MCF-7 cells treated with PARGi. Cells were treated with either DMSO or 10 µM JA2131 for 2 h, irradiated with 3 Gy (MDA-MB-231 and MCF-7), 7 Gy (PC3) IR and grown for ~2 weeks, then colonies were fixed with methanol and stained with crystal violet. The results of three independent experiments are shown. Error bars = the standard error of the mean (SEM). b dose-response of JA2131 in MDA-MB-231 cells with and without IR. Cells were treated with designated concentrations of JA2131 for 2 h and then either left untreated or exposed to 3 Gy IR and allowed to recover for 1 h before lysis. Total protein was immunoblotted with anti-PAR antibody (upper panel), stripped and reprobed with anti-PCNA as a loading control. c MDA-MB-231 cells with stable scrambled shRNA (WT) or stable PARG shRNA, knockdown (KD), were treated with 5 μM JA2131 for 2 h, lysed and then total lysates were immunoblotted for anti-PAR (upper panel) followed by anti-PARG (upper middle panel), anti-PARP1 (lower middle panel) and anti-actin (bottom panel) antibody. […] Stable cells with scramble shRNA (control) and shPARG (PARG-KD) cells were treated with an increasing concentration of JA2131 for growth inhibitory IC50 determination. The data was normalized against 100% survival at the lowest inhibitor concentration. Error bars show the percent coefficient of variation. Equivalent concentrations of DMSO were used as a negative control. e The cytotoxicity of JA2131 along with PDD, Veliparib and Doxorubicin against MRC-5 cells. Error bars show the percent coefficient of variation. f CETSA for in-cell JA2131 target engagement. Normalized anti-PARG western blot intensities of three independent experiments were fitted as above and the estimated aggregation temperature (Tagg) is shown in the tabulated insert. Source Data are provided as a Source Data file.
(§4) PC3, MDA-MB-231 cells were maintained in RPMI 1640, MCF-7 cells in Eagle’s Minimum Essential Medium (EMEM), MRC-5 cells in Eagle’s Minimum Essential Medium and Hela and U2OS cells in Dulbecco’s modified Eagle’s high glucose medium (DMEM) supplemented with 10% (vol/vol) fetal bovine serum (FBS) and 1% antibiotic/antimycotic (Lonza) in a humidified incubator with 10% CO2. All cell lines were purchased from ATCC and regularly checked for mycoplasma and cell authentication. SUM 149PT cells were cultured in F-12 Hams (Gibco) supplemented with 5% fetal bovine serum, insulin, and hydrocortisone. Colony formation assays were carried out in 6-well plates, 500 cells were used per well and following designated treatment, and colonies were grown for 2 weeks. Cells were fixed with methanol (100%), stained with crystal violet and analyzed using a GelCount instrument (Oxford Optronix Ltd). Crystal Violet C6158 was purchased from Sigma. PARG knockdown cells were generated by infecting MDA-MB-231 cells with shPARG lentiviral particles (sc-106355-V, Santa Cruz Biotechnology), which contain a pool of three shRNA plasmids. After 24 h infection, 3 µg/ml puromycin (Invitrogen) was added and antibiotic-resistant cells were further expanded and used for experimentation. Sequence-1; hairpin sequence: […], sense: […]tt, Antisense: […]tt. Sequence-2; hairpin sequence, […]-[…], sense: […]tt, antisense: […]tt. Sequence-3; hairpin sequence: […]-[…], sense: […]tt, antisense: […]-GGUUUCCtt. Control cells were generated using the same process except that scramble lentiviral particles with scrambled sequences were used (sc-108080).
(§5) Supplementary Fig. 8: Clonogenic survival of cells in the presence of PARGi and PARPi (a)
(§6) Clonogenic survival of PC3 cells in response to indicated compounds. ( b) Clonogenic survival of
(§7) MDA-MB-231 cells in response to i ndicated compounds. (c) Clonogenic survival of MCF -7 cells
(§8) in response to indicated compounds. […]

MCF-7 cells = test: Clonogenic survival assay; type: cell-based, human
Method: as §3, §4, §5, §6, §7, §8

PC3 cells [3] = test: Clonogenic survival assay; type: cell-based, human; settings: PC3
Method: as §3, §4, §5, §6, §7, §8

[4] = Sulforhodamine B (SRB) cytotoxicity assay; settings: human, A172 glioblastoma cells
Method: as §1, §2

[5] = Sulforhodamine B (SRB) cytotoxicity assay; type: cell-based, human; settings: human, MRC-5 cells
Method: as §3

[NH2][Pt]1([NH2])[O]CC(=O)[O]1 [Nedaplatin]
IC50 (A172 glioblastoma cells; 72 h): 67.6 ± 46.5 µM | Viability (A172 glioblastoma cells; 72 h, log [concentration] μM 0.291): 99.176% | Viability (A172 glioblastoma cells; 72 h, log [concentration] μM 0.592): 95.055% | Viability (A172 glioblastoma cells; 72 h, log [concentration] μM 0.893): 88.736% | Viability (A172 glioblastoma cells; 72 h, log [concentration] μM 1.495): 69.505% | Viability (A172 glioblastoma cells; 72 h, log [concentration] μM 1.796): 60.165% | Viability (A172 glioblastoma cells; 72 h, log [concentration] μM 2.097): 45.055% | Viability (A172 glioblastoma cells; 72 h, log [concentration] μM 2.398): 21.154% | Viability (A172 glioblastoma cells; 72 h, log [concentration] μM 2.699): 18.681% | Viability (A172 glioblastoma cells; 72 h, log [concentration] μM 3): 18.681% | Viability (A172 glioblastoma cells; 72 h, log [concentration] μM -0.01): 107.967% | Viability (A172 glioblastoma cells; 72 h, log [concentration] μM -0.312): 100% | IC50 (PC3 cells [1]): 4.98 ± 0.2 µM | Viability (PC3 cells [1]; log [concentration] μM 0.291): 99.072% | Viability (PC3 cells [1]; log [concentration] μM 0.592): 89.849% | Viability (PC3 cells [1]; log [concentration] μM 0.893): 9.664% | Viability (PC3 cells [1]; log [concentration] μM 1.194): 8.121% | Viability (PC3 cells [1]; log [concentration] μM 1.495): 6.671% | Viability (PC3 cells [1]; log [concentration] μM 1.796): 7.309% | Viability (PC3 cells [1]; log [concentration] μM -0.01): 100%

O=C(c1cc(Cc2n[nH]c(=O)c3ccccc23)ccc1F)N1CCN(C(=O)C2CC2)CC1 [Olaparib, reference compound]
viability at 72 h, 1.95 µM ([2]; +IR 7.0 Gy): 100% | viability at 72 h, 3.91 µM ([2]; +IR 7.0 Gy): 101% | viability at 72 h, 7.81 µM ([2]; +IR 7.0 Gy): 101% | viability at 72 h, 15.63 µM ([2]; +IR 7.0 Gy): 99.1% | viability at 72 h, 31.25 µM ([2]; +IR 7.0 Gy): 79.9% | viability at 72 h, 62.5 µM ([2]; +IR 7.0 Gy): 52.4% | viability at 72 h, 125 µM ([2]; +IR 7.0 Gy): 32.6% | viability at 72 h, 250 µM ([2]; +IR 7.0 Gy): 16.5% | viability at 72 h, 500 µM ([2]; +IR 7.0 Gy): 11.1% | viability at 72 h, 1000 µM ([2]; +IR 7.0 Gy): 11.4% | viability at 72 h, 2000 µM ([2]; +IR 7.0 Gy): 10.8% | viability at 72 h, 1.95 µM ([2]; -IR): 100% | viability at 72 h, 3.91 µM ([2]; -IR): 102% | viability at 72 h, 7.81 µM ([2]; -IR): 94.4% | viability at 72 h, 15.63 µM ([2]; -IR): 77.7% | viability at 72 h, 31.25 µM ([2]; -IR): 53.3% | viability at 72 h, 62.5 µM ([2]; -IR): 34.7% | viability at 72 h, 125 µM ([2]; -IR): 20.2% | viability at 72 h, 250 µM ([2]; -IR): 9.43% | viability at 72 h, 500 µM ([2]; -IR): 5.75% | viability at 72 h, 1000 µM ([2]; -IR): 6.34% | viability at 72 h, 2000 µM ([2]; -IR): 6.26% | colony count (clonogenic survival, raw replicate data, Supplementary Figure 8) (MDA-MB-231 cells; Experiment-1, replicates 1-6): 0 and 1 (2×) and 2 (2×) and 3 | colony count (clonogenic survival, raw replicate data, Supplementary Figure 8) (MDA-MB-231 cells; Experiment-2, replicates 1-6): 1 (3×) and 2 (2×) and 3 | colony count (clonogenic survival, raw replicate data, Supplementary Figure 8) (MDA-MB-231 cells; Experiment-3, replicates 1-6): 2 and 1 (3×) and 4 and 3 | colony count (clonogenic survival, raw replicate data, Supplementary Figure 8) (MCF-7 cells; Experiment-1, replicates 1-6): 14 and 16 and 15 and 5 and 13 and 26 | colony count (clonogenic survival, raw replicate data, Supplementary Figure 8) (MCF-7 cells; Experiment-2, replicates 1-6): 25 and 5 (2×) and 4 and 1 and 2 | colony count (clonogenic survival, raw replicate data, Supplementary Figure 8) (MCF-7 cells; Experiment-3, replicates 1-6): 18 (2×) and 15 and 17 and 16 and 5 | colony count (clonogenic survival, raw replicate data, Supplementary Figure 8) (PC3 cells [3]; Experiment-1, replicates 1-6): 5 and 10 and 21 and 13 and 39 and 16 | colony count (clonogenic survival, raw replicate data, Supplementary Figure 8) (PC3 cells [3]; Experiment-2, replicates 1-6): 6 (3×) and 1 and 0 and 11 | colony count (clonogenic survival, raw replicate data, Supplementary Figure 8) (PC3 cells [3]; Experiment-3, replicates 1-6): 0 (2×) and 3 (3×) and 1

Cn1c(=S)c2[nH]c(SCCN3CCOCC3)nc2n(C)c1=O [JA-2131]
colony count (clonogenic survival, raw replicate data, Supplementary Figure 8) (MCF-7 cells; Experiment-1, replicates 1-6): 184 and 217 and 183 and 124 and 178 and 153 | colony count (clonogenic survival, raw replicate data, Supplementary Figure 8) (MCF-7 cells; Experiment-2, replicates 1-6): 141 and 190 (2×) and 218 and 209 and 269 | colony count (clonogenic survival, raw replicate data, Supplementary Figure 8) (MCF-7 cells; Experiment-3, replicates 1-6): 154 and 188 and 126 and 153 and 169 and 142 | colony count (clonogenic survival, raw replicate data, Supplementary Figure 8) (PC3 cells [3]; Experiment-1, replicates 1-6): 191 and 210 and 213 and 170 and 222 and 223 | colony count (clonogenic survival, raw replicate data, Supplementary Figure 8) (PC3 cells [3]; Experiment-2, replicates 1-6): 174 and 164 and 144 and 181 and 152 and 125 | colony count (clonogenic survival, raw replicate data, Supplementary Figure 8) (PC3 cells [3]; Experiment-3, replicates 1-6): 164 and 128 and 108 and 141 and 148 and 123

C[C@]1(c2nc3c(C(N)=O)cccc3[nH]2)CCCN1 [Veliparib]
IC50 (A172 glioblastoma cells; Homo sapiens, A 172, 72 h): 153 ± 44.2 µM | viability at 72 h, 0.244 µM [4]: 100% | viability at 72 h, 0.488 µM [4]: 104% | viability at 72 h, 0.977 µM [4]: 102% | viability at 72 h, 1.95 µM [4]: 106% | viability at 72 h, 3.91 µM [4]: 101% | viability at 72 h, 7.82 µM [4]: 104% | viability at 72 h, 15.6 µM [4]: 98.6% | viability at 72 h, 31.3 µM [4]: 94.1% | viability at 72 h, 62.5 µM [4]: 88.5% | viability at 72 h, 125 µM [4]: 69.1% | viability at 72 h, 250 µM [4]: 27.2% | viability at 72 h, 500 µM [4]: 15.4% | viability at 72 h, 1.95 µM ([5]; log [concentration] μM 0.29): 90.5% | viability at 72 h, 3.89 µM ([5]; log [concentration] μM 0.59): 94.5% | viability at 72 h, 7.76 µM ([5]; log [concentration] μM 0.89): 86% | viability at 72 h, 15.5 µM ([5]; log [concentration] μM 1.19): 85.3% | viability at 72 h, 30.9 µM ([5]; log [concentration] μM 1.49): 89% | viability at 72 h, 63.1 µM ([5]; log [concentration] μM 1.8): 77.6% | viability at 72 h, 126 µM ([5]; log [concentration] μM 2.1): 70.3% | viability at 72 h, 251 µM ([5]; log [concentration] μM 2.4): 58.2% | viability at 72 h, 501 µM ([5]; log [concentration] μM 2.7): 34.2% | viability at 72 h, 0.977 µM ([5]; log [concentration] μM -0.01): 89.2% | viability at 72 h, 0.49 µM ([5]; log [concentration] μM -0.31): 90.8% | viability at 72 h, 0.245 µM ([5]; log [concentration] μM -0.61): 100%
